Laboratory results as given in publication PMC7265552 (Scientific Reports, 2020).
Numbering of substitutions follows the chain as printed. Like-named read-outs stand apart in the source and are kept apart here.

What was measured:
[1] = molecular target: T1, mouse WT TYK2 (Mus musculus, UniProt Q9R117); assay: JAK Caliper enzyme end-point IC50 assay, mouse WT TYK2; type: biochemical
T1 construct: His-tagged recombinant human TYK2, mouse TYK2, and human TYK2 I960V mutant kinase domains were expressed in insect cell/baculovirus systems; His; made in house; host or cells: insect cell/baculovirus
T1 sequence (Q9R117 894-1166 limits assumed): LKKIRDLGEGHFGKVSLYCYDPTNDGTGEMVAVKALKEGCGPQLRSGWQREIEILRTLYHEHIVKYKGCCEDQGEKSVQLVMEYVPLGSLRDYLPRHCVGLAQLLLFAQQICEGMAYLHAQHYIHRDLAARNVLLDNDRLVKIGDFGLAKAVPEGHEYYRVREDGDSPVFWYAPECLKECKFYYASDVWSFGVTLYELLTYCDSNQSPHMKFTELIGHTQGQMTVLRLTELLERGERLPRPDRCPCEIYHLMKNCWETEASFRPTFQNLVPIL

[2] = molecular target: T2, human TYK2 I960V mutant (Homo sapiens, UniProt P29597, I960V); assay: JAK Caliper enzyme end-point IC50 assay, human TYK2 I960V mutant; conditions: read-out: Human TYK2 I960V IC50; ATP 1 mM; geometric mean ± SD
T2 sequence (P29597 897-1176 I960V limits assumed): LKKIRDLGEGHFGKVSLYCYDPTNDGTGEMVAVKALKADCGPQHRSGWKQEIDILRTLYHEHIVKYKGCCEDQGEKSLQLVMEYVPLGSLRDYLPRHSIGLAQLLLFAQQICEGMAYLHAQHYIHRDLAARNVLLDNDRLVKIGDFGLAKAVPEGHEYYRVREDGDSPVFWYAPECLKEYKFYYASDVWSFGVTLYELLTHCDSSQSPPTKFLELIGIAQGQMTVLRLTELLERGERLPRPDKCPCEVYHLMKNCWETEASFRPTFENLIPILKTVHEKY

[3] = molecular target: T3, human WT TYK2 (Homo sapiens, UniProt P29597); assay: JAK Caliper enzyme end-point IC50 assay, human WT TYK2; type: biochemical; conditions: ATP 1 mM; geometric mean ± SD
T3 construct: His-tagged recombinant human TYK2, mouse TYK2, and human TYK2 I960V mutant kinase domains were expressed in insect cell/baculovirus systems; His; made in house; host or cells: insect cell/baculovirus
T3 sequence (P29597 897-1176 limits assumed): T2 sequence (P29597 897-1176 I960V limits assumed) with V64I

[4] = test system: IL-15 (JAK1/JAK3) induced pSTAT5; assay: Phospho-STAT inhibition in lymphocytes, IL-15, human; type: cell-based; conditions: Leukocyte, read-out: IL-15 (JAK1/JAK3) induced pSTAT5 IC50, Human WT
[5] = test system: IL-15 (JAK1/JAK3) induced pSTAT5; assay: Phospho-STAT inhibition in lymphocytes, IL-15, mouse WT; type: cell-based, mouse (C57BL/6); conditions: Leukocyte, read-out: IL-15 (JAK1/JAK3) induced pSTAT5 IC50, Mouse WT
[6] = test system: IL-12 (TYK2/JAK2) induced pSTAT4; assay: Phospho-STAT inhibition in lymphocytes, IL-12, human; type: cell-based; conditions: geomean ± SD, four experiments
[7] = test system: IL-12/IL-18 induced IFNγ production; assay: PK/PD IL-12/18 induced interferonγ production model, TYK2 V980I mice; type: in vivo, C57BL/6 TYK2 V980I mice; conditions: Mus musculus, 4 h, read-out: IC50 (IC50,u) for inhibition of IL-12/IL-18-induced IFNγ production
[8] = test system: IL-12/IL-18 induced IFNγ production; assay: PK/PD IL-12/18 induced interferonγ production model, wild type mice; type: in vivo, C57BL/6 wild type mice; conditions: Mus musculus, 4 h, read-out: IC50 (IC50,u) for inhibition of IL-12/IL-18-induced IFNγ production
[9] = test system: IL-12 (TYK2/JAK2) induced pSTAT4; assay: Phospho-STAT inhibition in lymphocytes, IL-12, dog; type: cell-based, dog (Beagle); conditions: Canis lupus familiaris, Leukocyte, read-out: IL-12 (TYK2/JAK2) induced pSTAT4 IC50, Dog WT
[10] = test system: IL-12 (TYK2/JAK2) induced pSTAT4; assay: Phospho-STAT inhibition in lymphocytes, IL-12, mouse V980I knock-in; type: cell-based, mouse (C57BL/6 TYK2 V980I knock-in); conditions: Lymphocyte, read-out: IL-12 (TYK2/JAK2) induced pSTAT4 IC50, Mouse V980I KI
[11] = test system: IL-12 (TYK2/JAK2) induced pSTAT4; assay: Phospho-STAT inhibition in lymphocytes, IL-12, mouse WT; type: cell-based, mouse (C57BL/6); conditions: Leukocyte, read-out: IL-12 (TYK2/JAK2) induced pSTAT4 IC50, Mouse WT
[12] = test system: IL-12 (TYK2/JAK2) induced pSTAT4; assay: Phospho-STAT inhibition in lymphocytes, IL-12, monkey; type: cell-based, monkey (cynomolgus); conditions: Primates, Leukocyte, read-out: IL-12 (TYK2/JAK2) induced pSTAT4 IC50, Monkey WT

IC50 ([1]; ATP 1 mM, geometric mean ± SD) [nM] | IC50 [2] [nM] | IC50 [3] [nM] | Compound | also measured
2120 ± 465 | 1560 ± 257 | 38 ± 8 | Cn1cc(Nc2ncc(F)c(N3C[C@H]4C[C@@]4(NC(=O)[C@@H]4CC4(F)F)C3)n2)cn1 [Compound 26] | 
3580 ± 1980 | 2570 ± 1560 | 135 ± 89 | CCNC(=O)c1ccc(Nc2nccc(N3C[C@H]4C[C@@H](C3)N4C(=O)C(F)(F)F)n2)cc1 [Compound 16] | 
180 ± 89 | 55 ± 25 | 15 ± 6 | Cc1cnc(Nc2cnn(C)c2)nc1N1C[C@H]2CC[C@@H](C1)N2C(=O)[C@@H]1CC1(F)F [Compound 28] | 
1330 ± 396 | 1020 ± 263 | 73 ± 18 | Cn1cc(Nc2nccc(N3C[C@H]4CC[C@@H](C3)N4CCC#N)n2)cn1 [Compound 22] | 
8160 ± 2030 | 7390 ± 1950 | 208 ± 51 | CNC(=O)c1ncc(Nc2nccc(N3C[C@H]4C[C@@]4(NC(=O)C4CC4)C3)n2)cc1C [Compound 19] | 
 |  |  | C[C@@H]1[C@@H]2CN(c3nc(Nc4cnn(C)c4)ncc3F)C[C@]12NC(=O)[C@@H]1CC1(F)F [PF-06673518] | IC50 [1]: 1410 nM; IC50 [4]: 135 ± 15 nM; IC50 [5]: 127 ± 6.7 nM; IC50 ([6]; Homo sapiens, Leukocyte, read-out: IL-12 (TYK2/JAK2) induced pSTAT4 IC50, Human WT, human leukocytes, no serum or other proteins): 64 nM; IC50 ([6]; read-out: IL-12 (TYK2/JAK2) induced pSTAT4 IC50, Human WT, human leukocytes, no serum or other proteins): 64.3 ± 10 nM; IC50 [7]: 26.6 nM; IC50 [8]: 1280 nM; IC50 [9]: 679 ± 254 nM; IC50 [10]: 128 ± 11 nM; IC50 [11]: 518 ± 84 nM; IC50 [12]: 527 ± 147 nM
5240 ± 605 | 3590 ± 257 | 371 ± 37 | CCNC(=O)c1ccc(Nc2ncc(C)c(N3C[C@H]4C[C@@H]3CN4S(C)(=O)=O)n2)cc1 [Compound 15] | 
841 ± 989 | 538 ± 622 | 35 ± 34 | CCNC(=O)c1ncc(Nc2ncc(Cl)c(N3C[C@H]4C[C@@]4(NC(=O)C4CC4)C3)n2)cc1C [Compound 18] | 
100 ± 17 | 30 ± 1 | 8 ± 4 | Cn1cc(Nc2ncc(Cl)c(N3C[C@H]4CC[C@@H](C3)N4C(=O)[C@@H]3CC3(F)F)n2)cn1 [Compound 29] | 
466 ± 78 | 388 ± 50 | 13 ± 4 | C[C@@H]1C2CN(c3nc(Nc4cn[nH]c4)ncc3F)C[C@@]21NC(=O)[C@H]1CC1(F)F (some centres unmarked) [Compound 23] | 
1160 ± 1040 | 484 ± 369 | 50 ± 46 | Cc1cnc(Nc2cnn(C)c2)nc1N1C[C@H]2[C@@H](C)[C@@]2(NC(=O)C2CC2)C1 [Compound 21] | 
784 ± 207 | 435 ± 174 | 67 ± 21 | Cc1cnc(Nc2cnn(CCO)c2)nc1N1CC2C[C@@]2(NC(=O)C2CC2)C1 (some centres unmarked) [Compound 20] | 
1520 ± 217 | 1220 ± 220 | 46 ± 11 | CCNC(=O)c1ncc(Nc2ncc(F)c(N3C[C@H]4CC[C@@H](C3)N4CCC#N)n2)cc1C [Compound 17] | 
